# Experimental data: patent US6737383B1, “Herbicidal oxadiazolidines” (priority 1999, dated 2004)
# Experiments:
# bedstraw = test: Test B pre/postemergence bedstraw; type: in vivo, Galium aparine; settings: Postemergence
# Outline: (§1)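 Herbicidal effect was estimated by eye on a ten-point control scale after plants spent twelve to sixteen days in a greenhouse following soil or foliar treatment. Foliar sprays targeted plants at one to four leaves; all doses were formulated in a non-phytotoxic solvent with surfactant.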
# blackgrass = test: Test B pre/postemergence blackgrass; type: in vivo, Alopecurus myosuroides; settings: for Blackgrass plant response rating: Postemergence; for Plant response rating, Blackgrass: Preemergence
# Outline: as §1
# surinam grass = test: Test B pre/postemergence surinam grass; type: in vivo, Brachiaria decumbens; settings: for B. signalgrass plant response rating: Postemergence; for Plant response rating, B. signalgrass: Preemergence
# Outline: as §1
# cocklebur = test: Test B pre/postemergence cocklebur; type: in vivo, Xanthium strumarium; settings: for Cocklebur plant response rating: Postemergence; for Plant response rating, Cocklebur: Preemergence
# Outline: as §1
# corn = test: Test B pre/postemergence corn; type: in vivo, Zea mays; settings: for Corn plant response rating: Postemergence; for Plant response rating, Corn: Preemergence
# Outline: as §1
# crabgrass = test: Test B pre/postemergence crabgrass; type: in vivo, Digitaria sanguinalis; settings: for Crabgrass plant response rating: Postemergence; for Plant response rating, Crabgrass: Preemergence
# Outline: as §1
# giant foxtail = test: Test B pre/postemergence giant foxtail; type: in vivo, Setaria faberii; settings: for Giant foxtail plant response rating: Postemergence; for Plant response rating, Giant foxtail: Preemergence
# Outline: as §1
# morningglory = test: Test B pre/postemergence morningglory; type: in vivo, Ipomoea hederacea; settings: for Morningglory plant response rating: Postemergence; for Plant response rating, Morningglory: Preemergence
# Outline: as §1
# pigweed = test: Test B pre/postemergence pigweed; type: in vivo, Amaranthus retroflexus; settings: for Redroot pigweed plant response rating: Postemergence; for Plant response rating, Redroot pigweed: Preemergence
# Outline: as §1
# rape = test: Test B pre/postemergence rape; type: in vivo, Brassica napus; settings: for Rape plant response rating: Postemergence; for Plant response rating, Rape: Preemergence
# Outline: as §1
# soybean = test: Test B pre/postemergence soybean; type: in vivo, Glycine max; settings: for Soybean plant response rating: Postemergence; for Plant response rating, Soybean: Preemergence
# Outline: as §1
# sugar beet = test: Test B pre/postemergence sugar beet; type: in vivo, Beta vulgaris; settings: for Sugarbeets plant response rating: Postemergence; for Plant response rating, Sugarbeets: Preemergence
# Outline: as §1
# velvetleaf = test: Test B pre/postemergence velvetleaf; type: in vivo, Abutilon theophrasti; settings: for Velvetleaf plant response rating: Postemergence; for Plant response rating, Velvetleaf: Preemergence
# Outline: as §1
# wheat = test: Test B pre/postemergence wheat; type: in vivo, Triticum aestivum; settings: for Wheat plant response rating: Postemergence; for Plant response rating, Wheat: Preemergence
# Outline: as §1
# wild oat = test: Test B pre/postemergence wild oat; type: in vivo, Avena fatua; settings: for Wild oats plant response rating: Postemergence; for Plant response rating, Wild oats: Preemergence
# Outline: as §1
# purple nutsedge = test: Test B pre/postemergence purple nutsedge; type: in vivo, Cyperus rotundus; settings: for Nutsedge plant response rating: Postemergence; for Plant response rating, Nutsedge: Preemergence
# Outline: as §1
# rice = test: Test B flood test rice; type: in vivo, Oryza sativa
# Outline: (§2)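 Read-out is a visual response score from 0 (no effect) to 10 (complete control), assigned by comparison with untreated controls. Treatment was applied at the 2-leaf stage, and plants stayed in the greenhouse for twelve to sixteen days before scoring.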
# smallflower flatsedge = test: Test B flood test smallflower flatsedge; type: in vivo, Cyperus difformis
# Outline: as §2
# duck salad = test: Test B flood test duck salad; type: in vivo, Heteranthera limosa
# Outline: as §2
# bamyardgrass = test: Test B flood test barnyardgrass; type: in vivo, Echinochloa crus-galli
# Outline: as §2
# [1] = Rate 125 g/ha, scale of 0 to 10 where 0 is no effect and 10 is complete control
# [2] = Rate 250 g/ha, scale 0 to 10, 0 is no effect, 10 is complete control
# [3] = Rate 500 g/ha, scale 0 to 10, 0 is no effect, 10 is complete control
# [4] = Rate 1000 g/ha, scale 0 to 10 (0 no effect, 10 complete control)
# [5] = Rate 250 g/ha, scale 0 to 10 (0 no effect, 10 complete control)
# [6] = Rate 500 g/ha, scale of 0 to 10 where 0 is no effect and 10 is complete control
# [7] = Pre-emergence, Rate 1000 g/ha, scale 0 to 10 (0 no effect, 10 complete control)
# [8] = Rate 125 g/ha, under heading Pre-emergence, flood test species, visual evaluation after twelve to sixteen days
# [9] = Rate 250 g/ha, Pre-emergence (flood test species), scale 0 to 10, 0 is no effect, 10 is complete control
# [10] = Rate 500 g/ha, Pre-emergence section of Table B, 0 to 10 scale (0 no effect, 10 complete control)
smiles,measurement,setting,value
COC(=O)C(CCO)n1c(=O)on(C(=O)N(c2ccc(F)cc2)C(C)C)c1=O (stereo not drawn) [Compound 680],Bedstraw plant response rating,bedstraw; [1],0
same,Bedstraw plant response rating,bedstraw; [2],0
same,Bedstraw plant response rating,bedstraw; [3],0
same,Blackgrass plant response rating,blackgrass; [1],0
same,Blackgrass plant response rating,blackgrass; [4],3
same,"Plant response rating, Blackgrass",blackgrass; [1],0
same,"Plant response rating, Blackgrass",blackgrass; [5],0
same,"Plant response rating, Blackgrass",blackgrass; [6],4
same,Blackgrass plant response rating,blackgrass; [2],0
same,Blackgrass plant response rating,blackgrass; [3],1
same,"Plant response rating, Blackgrass",blackgrass; [4],4
same,B. signalgrass plant response rating,surinam grass; [1],0
same,B. signalgrass plant response rating,surinam grass; [4],3
same,"Plant response rating, B. signalgrass",surinam grass; [1],0
same,"Plant response rating, B. signalgrass",surinam grass; [5],0
same,"Plant response rating, B. signalgrass",surinam grass; [6],0
same,B. signalgrass plant response rating,surinam grass; [2],0
same,B. signalgrass plant response rating,surinam grass; [3],0
same,"Plant response rating, B. signalgrass",surinam grass; [4],0
same,Cocklebur plant response rating,cocklebur; [1],0
same,Cocklebur plant response rating,cocklebur; [4],0
same,"Plant response rating, Cocklebur",cocklebur; [1],0
same,"Plant response rating, Cocklebur",cocklebur; [5],0
same,"Plant response rating, Cocklebur",cocklebur; [6],0
same,Cocklebur plant response rating,cocklebur; [2],0
same,Cocklebur plant response rating,cocklebur; [3],0
same,"Plant response rating, Cocklebur",cocklebur; [4],0
same,Corn plant response rating,corn; [1],0
same,Corn plant response rating,corn; [4],1
same,"Plant response rating, Corn",corn; [1],0
same,"Plant response rating, Corn",corn; [5],0
same,"Plant response rating, Corn",corn; [6],0
same,Corn plant response rating,corn; [2],0
same,Corn plant response rating,corn; [3],0
same,"Plant response rating, Corn",corn; [4],0
same,Crabgrass plant response rating,crabgrass; [1],0
same,Crabgrass plant response rating,crabgrass; [4],9
same,"Plant response rating, Crabgrass",crabgrass; [1],0
same,"Plant response rating, Crabgrass",crabgrass; [5],3
same,"Plant response rating, Crabgrass",crabgrass; [6],3
same,Crabgrass plant response rating,crabgrass; [2],1
same,Crabgrass plant response rating,crabgrass; [3],3
same,"Plant response rating, Crabgrass",crabgrass; [4],3
same,Giant foxtail plant response rating,giant foxtail; [1],0
same,Giant foxtail plant response rating,giant foxtail; [4],8
same,"Plant response rating, Giant foxtail",giant foxtail; [1],0
same,"Plant response rating, Giant foxtail",giant foxtail; [6],4
same,Giant foxtail plant response rating,giant foxtail; [2],0
same,Giant foxtail plant response rating,giant foxtail; [3],5
same,"Plant response rating, Giant foxtail",giant foxtail; [4],7
same,Morningglory plant response rating,morningglory; [1],1
same,Morningglory plant response rating,morningglory; [4],7
same,"Plant response rating, Morningglory",morningglory; [1],0
same,"Plant response rating, Morningglory",morningglory; [6],0
same,Morningglory plant response rating,morningglory; [2],1
same,Morningglory plant response rating,morningglory; [3],1
same,"Plant response rating, Morningglory",morningglory; [4],0
same,Redroot pigweed plant response rating,pigweed; [1],0
same,Redroot pigweed plant response rating,pigweed; [4],5
same,"Plant response rating, Redroot pigweed",pigweed; [1],0
same,"Plant response rating, Redroot pigweed",pigweed; [6],3
same,Redroot pigweed plant response rating,pigweed; [2],0
same,Redroot pigweed plant response rating,pigweed; [3],0
same,"Plant response rating, Redroot pigweed",pigweed; [4],7
same,Rape plant response rating,rape; [1],0
same,Rape plant response rating,rape; [4],0
same,"Plant response rating, Rape",rape; [1],0
same,"Plant response rating, Rape",rape; [6],0
same,Rape plant response rating,rape; [2],0
same,Rape plant response rating,rape; [3],0
same,"Plant response rating, Rape",rape; [4],0
same,Soybean plant response rating,soybean; [1],0
same,"Plant response rating, Soybean",soybean; [1],0
same,"Plant response rating, Soybean",soybean; [6],0
same,Soybean plant response rating,soybean; [2],0
same,Soybean plant response rating,soybean; [3],3
same,"Plant response rating, Soybean",soybean; [4],0
same,Sugarbeets plant response rating,sugar beet; [1],0
same,"Plant response rating, Sugarbeets",sugar beet; [1],0
same,"Plant response rating, Sugarbeets",sugar beet; [6],0
same,Sugarbeets plant response rating,sugar beet; [2],0
same,Sugarbeets plant response rating,sugar beet; [3],0
same,"Plant response rating, Sugarbeets",sugar beet; [4],0
same,Velvetleaf plant response rating,velvetleaf; [1],0
same,"Plant response rating, Velvetleaf",velvetleaf; [1],0
same,"Plant response rating, Velvetleaf",velvetleaf; [6],0
same,Velvetleaf plant response rating,velvetleaf; [2],0
same,Velvetleaf plant response rating,velvetleaf; [3],0
same,"Plant response rating, Velvetleaf",velvetleaf; [4],4
same,Wheat plant response rating,wheat; [1],0
same,"Plant response rating, Wheat",wheat; [1],0
same,"Plant response rating, Wheat",wheat; [6],0
same,Wheat plant response rating,wheat; [2],0
same,Wheat plant response rating,wheat; [3],0
same,"Plant response rating, Wheat",wheat; [4],0
same,Wild oats plant response rating,wild oat; [1],0
same,"Plant response rating, Wild oats",wild oat; [1],0
same,"Plant response rating, Wild oats",wild oat; [6],0
same,Wild oats plant response rating,wild oat; [2],0
same,Wild oats plant response rating,wild oat; [3],0
same,"Plant response rating, Wild oats",wild oat; [4],2
same,Nutsedge plant response rating,purple nutsedge; [1],0
same,"Plant response rating, Nutsedge",purple nutsedge; [1],0
same,"Plant response rating, Nutsedge",purple nutsedge; [6],0
same,Nutsedge plant response rating,purple nutsedge; [2],0
same,Nutsedge plant response rating,purple nutsedge; [3],0
same,"Plant response rating, Nutsedge",purple nutsedge; [4],0
same,Rice plant response rating,rice; [7],0
same,"Rice plant response rating (0 to 10 scale, 0 is no effect, 10 is complete control)",rice; [8],0
same,Rice plant response rating,rice; [9],0
same,Rice plant response rating,rice; [10],0
same,S. Flatsedge plant response rating,smallflower flatsedge; [7],0
same,"S. Flatsedge plant response rating (0 to 10 scale, 0 is no effect, 10 is complete control)",smallflower flatsedge; [8],0
same,S. Flatsedge plant response rating,smallflower flatsedge; [9],0
same,S. Flatsedge plant response rating,smallflower flatsedge; [10],0
same,Ducksalad plant response rating,duck salad; [7],0
same,"Ducksalad plant response rating (0 to 10 scale, 0 is no effect, 10 is complete control)",duck salad; [8],0
same,Ducksalad plant response rating,duck salad; [9],0
same,Ducksalad plant response rating,duck salad; [10],0
same,Barnyardgrass plant response rating,bamyardgrass; [7],0
same,"Barnyardgrass plant response rating (0 to 10 scale, 0 is no effect, 10 is complete control)",bamyardgrass; [8],0
same,Barnyardgrass plant response rating,bamyardgrass; [9],0
same,Barnyardgrass plant response rating,bamyardgrass; [10],0
